Results: ChEMBL document CHEMBL1201862, “PubChem BioAssay data set” (2004)
Where “and” joins values, the source holds several entries; their conditions need not be identical. Equal entries are not always repeated.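 Dose response: 5 concentrations. Exposure: 48 h. Format: 96-well plates. Endpoint: linear interpolation; highest concentration if not reached. GI50 is the concentration that inhibits growth by half.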 Calls of active or inactive are those of the source. No stated cut-off is given here; in the data, active = GI50 up to about 1.1 µM and inactive = higher.

Columns and labels:
Test in all cases: NCI anticancer screen, dose series, 48 h
[1] = test system: 786-0
[2] = test system: A498
[3] = test system: A549
[4] = test system: ACHN
[5] = test system: CAKI-1
[6] = test system: CCRF-CEM
[7] = test system: COLO 205
[8] = test system: DU-145
[9] = test system: HCT-116
[10] = test system: HCT-15
[11] = test system: HL-60
[12] = test system: HOP-62
[13] = test system: HOP-92
[14] = test system: HT-29
[15] = test system: Hs-578T
[16] = test system: IGROV-1
[17] = test system: K562
[18] = test system: KM12
[19] = test system: LOX IMVI
[20] = test system: M14
[21] = test system: MCF7
[22] = test system: MDA-MB-231
[23] = test system: MDA-MB-435
[24] = test system: MDA-N
[25] = test system: MOLT-4
[26] = test system: Malme-3M
[27] = test system: NCI-H226
[28] = test system: NCI-H23
[29] = test system: NCI-H460
[30] = test system: NCI-H522
[31] = test system: NCI/ADR-RES
[32] = test system: OVCAR-3
[33] = test system: OVCAR-4
[34] = test system: OVCAR-5
[35] = test system: OVCAR-8
[36] = test system: PC-3
[37] = test system: RXF 393
[38] = test system: SF-268
[39] = test system: SF-295
[40] = test system: SF-539
[41] = test system: SK-MEL-28
[42] = test system: SK-MEL-2
[43] = test system: SK-MEL-5
[44] = test system: SK-OV-3
[45] = test system: SN12C
[46] = test system: SNB-19
[47] = test system: SNB-75
[48] = test system: SR
[49] = test system: SW-620
[50] = test system: T47D
[51] = test system: TK-10
[52] = test system: U-251
[53] = test system: UACC-257
[54] = test system: UACC-62
[55] = test system: UO-31
[56] = test system: BT-549
[57] = test system: EKVX
[58] = test system: HCC 2998
[59] = test system: RPMI-8226

Measured: GI50

COc1cc(C2SC(C)C(=O)N2c2ccc(-c3csc(NS(=O)(=O)c4ccc(Cl)c(OC)c4)n3)cc2)ccc1O (stereo not given)
33.9 µM: [10]
inactive: [1] 67.3 µM | [2] > 100 µM | [3] > 100 µM | [4] > 100 µM | [5] > 100 µM | [6] 14.6 µM | [7] > 100 µM | [8] > 100 µM | [9] 31.8 µM | [11] 48.2 µM | [12] > 100 µM | [13] 24.4 µM | [14] > 100 µM | [15] 54.1 µM | [16] 44.9 µM | [17] 34 µM | [18] 22.5 µM | [19] 31.3 µM | [20] > 100 µM | [21] 38.4 µM | [22] > 100 µM | [23] > 100 µM | [24] 41.2 µM | [25] 25.1 µM | [26] 27.8 µM | [27] > 100 µM | [28] 22.6 µM | [29] > 100 µM | [30] 21.7 µM | [31] > 100 µM | [32] 56.4 µM | [33] 26.3 µM | [34] > 100 µM | [35] 29.7 µM | [36] > 100 µM | [37] > 100 µM | [38] 29.4 µM | [39] > 100 µM | [40] 32.7 µM | [41] > 100 µM | [42] 48.5 µM | [43] > 100 µM | [44] > 100 µM | [45] 20.6 µM | [46] > 100 µM | [47] 19.7 µM | [48] 23.9 µM | [49] 31.8 µM | [50] 40.5 µM | [51] > 100 µM | [52] 46.5 µM | [53] 85.7 µM | [54] 25.4 µM | [55] > 100 µM

C=CCN1C(=O)/C(=C/c2ccc(C)cc2)N=C1SC1OC(COC(C)=O)C(OC(C)=O)C(OC(C)=O)C1OC(C)=O (stereo not given)
inactive: [1] 3.4 µM | [3] > 100 µM | [56] 25.3 µM and 23.3 µM | [7] 59.4 µM | [8] 33.9 µM and > 45.3 µM | [57] 51.8 µM | [9] 34.1 µM | [11] > 76.4 µM | [14] > 100 µM | [20] 68.7 µM | [21] 39.4 µM and 34.8 µM | [22] 28.7 µM and 27.5 µM | [24] > 100 µM | [26] 39.2 µM | [33] 7.83 µM | [34] 53.2 µM and > 82.8 µM | [37] 11.6 µM and 8.43 µM | [39] 60.1 µM | [41] > 100 µM | [45] > 100 µM | [46] > 100 µM | [50] 14.4 µM | [51] > 100 µM

CN(C)S(=O)(=O)n1ccnc1
inactive: [1] > 100 µM | [2] > 100 µM | [3] > 100 µM | [4] > 100 µM | [56] > 100 µM | [5] > 100 µM | [7] > 100 µM | [57] > 100 µM | [58] > 100 µM | [9] > 100 µM | [12] > 100 µM | [13] > 100 µM | [16] > 100 µM | [17] > 100 µM | [18] > 100 µM | [19] > 100 µM | [20] > 100 µM | [21] > 100 µM | [22] > 100 µM | [23] > 100 µM | [24] > 100 µM | [25] > 100 µM | [26] > 100 µM | [27] > 100 µM | [28] > 100 µM | [29] > 100 µM | [30] > 100 µM | [31] > 100 µM | [32] > 100 µM | [33] > 100 µM | [34] > 100 µM | [36] > 100 µM | [59] > 100 µM | [37] > 100 µM | [38] > 100 µM | [39] > 100 µM | [40] > 100 µM | [41] > 100 µM | [42] > 100 µM | [43] > 100 µM | [44] > 100 µM | [45] > 100 µM | [46] > 100 µM | [47] > 100 µM | [49] > 100 µM | [50] > 100 µM | [51] > 100 µM | [52] > 100 µM | [53] > 100 µM | [55] > 100 µM
> 100 µM: [10]

COc1ccc(-c2cc(O)c3c(C)ccnc3n2)cc1
5.61 µM: [10]
inactive: [2] 14.3 µM | [3] 10.3 µM | [4] 21.2 µM | [56] 33.7 µM | [5] 33.8 µM | [6] 17.8 µM | [7] 4.26 µM | [8] 28.8 µM | [57] 30.7 µM | [58] 22.5 µM | [12] 20.7 µM | [14] 4.93 µM | [15] 23.8 µM | [16] 5.64 µM | [17] 3.85 µM | [18] 3.18 µM | [19] 14.3 µM | [20] 10.8 µM | [21] 2.03 µM | [22] 49.5 µM | [25] 12.1 µM | [26] 10.8 µM | [27] 33.5 µM | [28] 19 µM | [30] 8.13 µM | [31] 20.2 µM | [33] 24.8 µM | [34] 20.5 µM | [35] 25.9 µM | [59] 9.31 µM | [37] 19.9 µM | [38] 15.1 µM | [40] 17.4 µM | [41] 15.3 µM | [42] 7.6 µM | [44] 23 µM | [45] 27.7 µM | [46] 36.8 µM | [49] 4.81 µM | [50] 7.43 µM | [51] 41.1 µM | [53] 33.7 µM | [54] 10.6 µM | [55] 27.8 µM

CN(C)P(=O)(Oc1occc1C(O)Cc1ccccc1)N(C)C (stereo not given)
> 100 µM: [10]
inactive: [1] > 100 µM | [2] > 100 µM | [3] > 100 µM | [4] > 100 µM | [56] > 100 µM | [5] > 100 µM | [6] > 100 µM | [7] > 100 µM | [57] > 100 µM | [58] > 100 µM | [9] > 100 µM | [12] > 100 µM | [18] > 100 µM | [19] > 100 µM | [20] > 100 µM | [21] > 100 µM | [22] > 100 µM | [23] > 100 µM | [24] > 100 µM | [26] > 100 µM | [27] > 100 µM | [28] > 100 µM | [29] > 100 µM | [30] > 100 µM | [31] > 100 µM | [32] > 100 µM | [33] > 100 µM | [34] > 100 µM | [35] > 100 µM | [36] > 100 µM | [59] > 100 µM | [37] > 100 µM | [38] > 100 µM | [39] > 100 µM | [40] > 100 µM | [41] > 100 µM | [42] > 100 µM | [43] > 100 µM | [44] > 100 µM | [45] > 100 µM | [46] > 100 µM | [47] > 100 µM | [49] > 100 µM | [50] > 100 µM | [51] > 100 µM | [52] > 100 µM | [53] > 100 µM | [55] > 100 µM

COc1ccc(-c2nc3cc(C(F)(F)F)ccc3n2CC2CCCN3CCCCC23)cc1 (stereo not given)
inactive: [1] 19.5 µM | [2] 13.4 µM | [4] 15.6 µM | [5] 21 µM | [6] 13.6 µM | [8] 17.1 µM | [57] 12.1 µM | [58] 12.1 µM | [9] 18.1 µM | [11] 14.3 µM | [12] 18.7 µM | [13] 14.8 µM | [14] 13.3 µM | [15] 15.5 µM | [16] 13.9 µM | [17] 14.8 µM | [18] 19.4 µM | [19] 15 µM | [20] 13 µM | [21] 13.2 µM | [22] 14.3 µM | [23] 15.8 µM | [24] 19.3 µM | [25] 12.7 µM | [27] 16.5 µM | [28] 15.6 µM | [29] 15.8 µM | [30] 15.6 µM | [31] 14.1 µM | [32] 16.1 µM | [33] 17.1 µM | [34] 27.1 µM | [35] 17.1 µM | [36] 13.6 µM | [59] 14.2 µM | [37] 16.6 µM | [38] 15.3 µM | [39] 19.2 µM | [40] 16.8 µM | [41] 14.9 µM | [42] 15.5 µM | [43] 14.4 µM | [44] 17.7 µM | [47] 15.5 µM | [48] 13.3 µM | [49] 15.2 µM | [50] 18.5 µM | [51] 16.6 µM | [52] 17 µM | [53] 13.8 µM | [55] 17.1 µM
15.7 µM: [10]
